Values quoted from earlier work, collected in patent US20230066280A1, “DRUG ELUTING BIOMATERIALS” (UCL BUSINESS LTD, priority 2020, published 2023).

Legend:
Rho = details: SY5YAPP, HEK 293 and PC12 cells (ref 30)

CC(C)Cc1ccc(C(C)C(=O)O)cc1 (stereo not drawn) [ibuprofen]
initial loaded drug released within 24 hours (ibuprofen from EVA, previous study (ref 24)): 50% | release rate of ibuprofen from MSN (mesoporous silica nanoparticles, previous studies (ref 20)): 96.3%

CSc1ccc(/C=C2/C(C)=C(CC(=O)O)c3cc(F)ccc32)cc1 [sulindac sulfide]
levels of active Rho-GTP (Rho): reduced
